Consider 3 compounds from patent publication US20060252774A1, “Regulation of type 5 adenylyl cyclase for treatment of neurodegenerative and cardiac diseases” (priority 2002, published 2006).

Test [1] has as its system cardiac AC. In words: AC assay in heart membrane preparations. To be noted: 100 μmol/L ISO + 100 μmol/L GTP. It counts as biochemical, mouse. The procedure:
FIG. 17: Adrenergic, muscarinic, and Ca^2+-mediated regulation of cardiac AC activity. A, AC activity in vitro. The steady state AC activity was determined as the maximal cAMP production over 15 min. Stimulation was performed at the level of the β-AR (ISO), G-protein (GTPγS) and AC catalytic unit with forskolin (Fsk). *P<0.01, n=5. B, Effects of carbachol on AC activity. AC was preactivated by ISO. AC activity was then determined in the absence and presence of carbachol. Carbachol at 10 μmol/L produced its maximal inhibitory effect. *P<0.01, n−5. C, To investigate the inhibition of AC activity by Ca^2+, we examined cAMP production in membranes from the hearts of WT and AC5KO at increasing Ca^2+ concentrations in the presence of ISO. ISO-stimulated AC activity was inhibited more in WT than in AC5KO. […].
Hearts were dissected from the mice and membrane preparations were prepared as described previously. Protein concentration was measured by the method of Bradford using bovine serum albumin as a standard. AC activity was measured as described previously. AC activity was linear within the incubation time up to 30 min. In order to harvest hearts for tissue cAMP content measurements, mice were allowed to acclimate to the surroundings in the laboratory for an hour before sacrifice. Freshly isolated hearts were briefly immersed in liquid nitrogen. The tissue was homogenized in ice-cold 6% percholic acid, and cAMP was extracted as described before. The concentration of cAMP was determined with an RIA kit (PerkinElmer Life Sciences, Boston, Mass., USA).
Hearts were dissected from the mice, and membrane preparations were prepared as described previously. Protein concentration was measured by the Bradford method using bovine serum albumin as a standard. AC activity was measured as described previously. AC activity was linear within the incubation time up to 30 min. For the study of Ca 2+ inhibition, the membranes were treated first with EGTA to extract the endogenous Ca 2+ prior to the assay. Free Ca 2+ concentrations were obtained with the use of 200 μmol/L EGTA buffers as described previously. The experiments with Ca 2+ inhibition were conducted in the presence of 100 μmol/L isoproterenol (ISO)+100 μmol/L GTP.

The subject of test [2] is L-type Ca2+ channels. Briefly: Whole-cell patch-clamp of Ca2+ channel currents (ICa) in myocytes. The test is classed as cell-based, mouse. The source says:
FIG. 22: A, Effects of ISO (1 μmol/L) on ICa in WT and AC5KO myoctyes. Traces show currents recorded from a holding potential of −50 mV to indicated potentials in control before (a) and after application of ISO (1 μmol/L) (b). Peak ICa were normalized to the cell capacitance to give current densities (pA/pF) and were plotted as a function of voltage (c). B, Concentration-dependent effects of ISO on ICa measured in myocytes dialyzed with EGTA or BAPTA, and on Ba^2+ currents with EGTA. The relative increase of peak current amplitude was plotted against ISO concentration. The solid lines were best fit to one-to-one binding model. Data are from 8-30 myocytes.
Whole-cell currents were recorded using patch-clamp techniques. Cell capacitance was measured using voltage ramps of 0.8 V/s from a holding potential of −50 mV. All experiments were performed at room temperature. […] The pipette solution contained (mmol/L): Cs-aspartate, 100; CsCl, 20; MgCl2, 1; MgATP, 2; GTP, 0.5; EGTA, 5 or 1,2-bis (2-aminophenoxy)ethane-N,N,N′,N′-tetraacetic acid (BAPTA), 10 and HEPES, 5 (Ph 7.3). […] Nifedipine (10 μmol/L) was added to block L-type Ca^2+ channel currents. The patch pipette solution contained (mmol/L): potassium aspartate, 110; KCl, 20; MgCl2, 2; ATP, 2; GTP, 0.5; EGTA, 5; HEPES, 5 (pH 7.3).
Ca^2+ influx through L-type Ca^2+ channels is essential for cardiac contractility, thus basic Ca^2+ channel properties were characterized. Peak inward ICa amplitude (with 5 mmol/L EGTA in the pipette solution), normalized relative to cell capacitance (ICa density), was similar in myocytes isolated from AC5KO (7.1±0.3 pA/pF, n=69) and WT (6.7±0.3 pA/pF, n=55). […] In these experiments myocytes were dialyzed with BAPTA, and peak ICa amplitude, as the function of voltage (I-V relationships) before and after exposure to ISO, was determined. In both groups, ISO increased the current amplitude at all test potentials and also shifted the I-V relationships toward more negative potentials.
In general terms: In patch-clamp work, channel activity is measured electrically.

In test [3] the test system is WT, hetero and AC5KO mice. Briefly: Rotor-rod test after db-cAMP injection. The test is classed as in vivo, mouse. The procedure:
FIG. 9: Effects of db-cAMP on rotor-rod test. Tests were performed before (pre), 30 minutes after (post), and 48 hours after (next) the injection of db-cAMP to WT, hetero and AC5KO (n=4-7).
The locomotor activity of intact animals, AC5KO versus WT was examined (FIG. 5). At first glance the animals appeared normal, being neither catatonic nor rigid. […] The mice were studied using a rotor rod test in which mice were placed on a rototating rod and had to make continuous adjustment in balance in order to remain upright. The time that the mice spent on the accelerating rotor rod without falling was measured. The rod increased from 3 rpm to 30 rpm during each 5 min. trial. […] There was no significant difference between WT and Hetero at the 1st through 4th trial. At the 5th trial, there was a small but signiifcant decrease in their performance in Hetero.
Motor function may be improved by the administration of cAMP analogues.

In test [4] the test system is WT and AC5KO mice. In words: Locomotor activity test with dopaminergic agonists. The test is classed as in vivo, mouse. Particulars: subcutaneous, SKF38393 25 or 50 mg/kg, cabergoline 0.2 or 1.0 mg/kg. The procedure:
FIG. 27. Motor dysfunction in ACD-^−/− mice. Rotarod test (A)—Each mouse was placed on a 3.5-cm diameter rod covered with rubber to evaluate rotarod performance (14). Mice were left for 1 minute on the rod for habituation. The rod rotated gradually increasing from 4 to 40 rpm over the course of 5 min and the time that mice could stay on an accelerating rotarod without failing was recorded. Five trials were conducted for each individual 10-25 min apart within the dark phase of the light/dark cycle. Mice that stayed on the rotarod for >300 sec were considered complete responders, and their latencies were recorded as 300 sec. *p<0.05, relative to ^+/+; ^+/−, n=17-20. […] Locomotor activity (B) was assessed using an activity monitor equipped with photocell beams (Columbus Instruments, Ohio, USA). The number of photobeam interruptions in each perpendicular axis was recorded and totaled for 5 min. The behavior of the mice was recorded simultaneously by video camera for later analysis, and their rearing actions were counted (C). *p<0.05, relative to ^+/+, n=15-20. […] The time until it turned completely downward (open bars, Tturn) and the time until it climbed down to the floor (closed bars, TLA) were measured *p<0.01, relative to ^+/+, n=14-17. […]
FIG. 32. […] In rotarod test, the best performance out of five trials in each individual was evaluated. […]

Test [5] has as its system WT and AC5KO mice. In words: Rotarod test with dopaminergic agonists. The test is classed as in vivo, mouse. Particulars: subcutaneous, 0.2 or 1.0 mg/kg. The procedure:
(§1) FIG. 27. Motor dysfunction in ACD-^−/− mice. Rotarod test (A)—Each mouse was placed on a 3.5-cm diameter rod covered with rubber to evaluate rotarod performance (14). Mice were left for 1 minute on the rod for habituation. The rod rotated gradually increasing from 4 to 40 rpm over the course of 5 min and the time that mice could stay on an accelerating rotarod without failing was recorded. Five trials were conducted for each individual 10-25 min apart within the dark phase of the light/dark cycle. Mice that stayed on the rotarod for >300 sec were considered complete responders, and their latencies were recorded as 300 sec. *p<0.05, relative to ^+/+; ^+/−, n=17-20. Activity tests (B and C)—The tests were performed as previously described (14, 15). Mice were put in the darkened testing room 60 minutes for habituation before testing. Locomotor activity (B) was assessed using an activity monitor equipped with photocell beams (Columbus Instruments, Ohio, USA). The number of photobeam interruptions in each perpendicular axis was recorded and totaled for 5 min. The behavior of the mice was recorded simultaneously by video camera for later analysis, and their rearing actions were counted (C). *p<0.05, relative to ^+/+, n=15-20. Pole test (D)—In order to evaluate bradykinesia, pole test was performed (16). In brief, mice were placed head upward on the top of a rough-surfaced pole (8 mm in diameter and 50 cm in height) that was wrapped with gauze to prevent slipping. The time until it turned completely downward (open bars, Tturn) and the time until it climbed down to the floor (closed bars, TLA) were measured *p<0.01, relative to ^+/+, n=14-17. Means±SEM are shown. Homozygous to (ACD^−/−) (closed circles, ^−/−), heterozygous (shaded circles, ^+/−), and wild type (WT) (open circles, ^+/+).
(§2) FIG. 32. Effect of dopaminergic agonists on motor functions Effects of SKF38393 on locomotor activity (A), rotarod test (B), and pole test (C) were compared. […] In rotarod test, the best performance out of five trials in each individual was evaluated. […]
In general terms: The rotarod test checks motor coordination on a turning rod.

The test system of test [6] is WT and AC5KO mice. In words: Pole test with dopaminergic agonists. The test is classed as in vivo, mouse. The procedure: as §1, §2

For `CC(C)NCC(O)c1ccc(O)c(O)c1` (stereo not shown) [ISO, isoproterenol], the “increase of AC activity” value in test [1] (AC5KO heart membranes) is on record as 64±4 pmol/15 min/mg; in test [1] (WT heart membranes), 78±6 pmol/15 min/mg. For the same compound, the “maximum response of the Ca2+ channel (relative increase of peak current)” value in test [2] (AC5KO myocytes, all three conditions (EGTA, BAPTA, Ba2+)) was about 1.5 fold; in test [2] (WT myocytes dialyzed with EGTA), about 1.7 fold; in test [2] (WT myocytes, BAPTA or Ba2+) it was about 2.4 fold.

Turning to `CCCC(=O)Nc1ncnc2c1ncn2[C@@H]1O[C@@H]2COP(=O)(O)O[C@H]2[C@H]1OC(=O)CCC` [db-cAMP], the “improvement of time on the rod” value in test [3] (AC5KO, 30 minutes after injection) was “two-fold increase”. In addition, the “rotor rod performance 48 hours after injection” value in test [3] (AC5KO, 48 hours after injection) is “dropped to the basal level”. Moreover, the “improvement of time on the rod, increase” value in test [3] (hetero and WT, 30 minutes after injection) is on record as 25-30%.

With `C=CCN1C[C@H](C(=O)N(CCCN(C)C)C(=O)NCC)C[C@@H]2c3cccc4[nH]cc(c34)C[C@H]21` [Cabergoline], the locomotor activity result in test [4] was “no significant effect on locomotor activity in both WT and AC5KO”. Further, the results for the rotarod performance entry in test [5] (AC5KO) and in test [5] (WT) were “improved rotarod performance selectively in AC5KO” and “essentially had no effect on WT”, respectively. For the same compound, the “pole test performance at the lower dose” value in test [6] (0.2 mg/kg) is given as “dramatic improvement”. The pole test performance result in test [6] (subcutaneous) is recorded as “improved pole test performance”.
